Source: the supplement of paper PMC13380429

How the values were obtained:
Conditions in all cases: 72 h
[1] = test system: Calu-3; experiment: drug sensitivity score (DSS) for viability; higher = more toxic; extreme values may be limits of the assay
[2] = test system: HepG2; experiment: as above
[3] = test system: Vero E6; experiment: as above
[4] = test system: Caco-2; experiment: as above
[5] = test system: Calu-3; experiment: cell viability relative to DMSO; higher = less toxic
[6] = test system: HepG2; experiment: as above
[7] = test system: Vero E6; experiment: as above
[8] = test system: Caco-2; experiment: as above
[9] = test system: Calu-3; experiment: relative viability EC50 (midpoint between 100% and the lowest measured viability); higher = less toxic
[10] = test system: HepG2; experiment: as above
[11] = test system: Vero E6; experiment: as above
[12] = test system: Caco-2; experiment: as above
[13] = test system: U2OS; experiment: drug sensitivity score (DSS) for viability; higher = more toxic; extreme values may be limits of the assay
[14] = test system: U2OS; experiment: cell viability relative to DMSO; higher = less toxic
[15] = test system: U2OS; experiment: relative viability EC50 (midpoint between 100% and the lowest measured viability); higher = less toxic

Structure (SMILES) | drug sensitivity score [1] | drug sensitivity score [2] | drug sensitivity score [3] | drug sensitivity score [4] | cell viability ([5]; 1 nM) | cell viability ([5]; 10 nM) | cell viability ([5]; 100 nM) | cell viability ([5]; 1000 nM) | cell viability ([5]; 10000 nM) | cell viability ([6]; 1 nM) | cell viability ([6]; 10 nM) | cell viability ([6]; 100 nM) | cell viability ([6]; 1000 nM) | cell viability ([6]; 10000 nM) | cell viability ([7]; 1 nM) | cell viability ([7]; 10 nM) | cell viability ([7]; 100 nM) | cell viability ([7]; 1000 nM) | cell viability ([7]; 10000 nM) | cell viability ([8]; 1 nM) | cell viability ([8]; 10 nM) | cell viability ([8]; 100 nM) | cell viability ([8]; 1000 nM) | cell viability ([8]; 10000 nM) | relative viability EC50 [9] | relative viability EC50 [10] | relative viability EC50 [11] | relative viability EC50 [12] | drug sensitivity score [13] | cell viability ([14]; 1 nM) | cell viability ([14]; 10 nM) | cell viability ([14]; 100 nM) | cell viability ([14]; 1000 nM) | cell viability ([14]; 10000 nM) | relative viability EC50 [15]
CC(C)(C)C(=O)C(Oc1ccc(Cl)cc1)n1ccnc1 (centres undefined) [climbazole] | 0 | 0 | 0 | 0 | 94.5% | 102% | 98.3% | 94.7% | 101% | 113% | 104% | 93.8% | 107% | 102% | 96.6% | 101% | 98.1% | 92.2% | 97.1% | 108% | 100% | 104% | 97% | 98.2% | > 10 µM | > 10 µM | > 10 µM | > 10 µM | – | – | – | – | – | – | –
O=C(O)c1cc(Oc2ccc([N+](=O)[O-])cc2)cc(Oc2ccc([N+](=O)[O-])cc2)c1 [compound-w] | 0 | 0 | – | – | 107% | 104% | 105% | 96.9% | 94.6% | 106% | 98.9% | 102% | 104% | 108% | – | – | – | – | – | – | – | – | – | – | > 10 µM | > 10 µM | – | – | – | – | – | – | – | – | –
O=C1CN(/N=C/c2ccc(-c3ccc([N+](=O)[O-])cc3)o2)C(=O)N1 [dantrolene] | 0 | 0 | – | 0 | 102% | 95% | 106% | 102% | 112% | 102% | 101% | 95.6% | 101% | 107% | – | – | – | – | – | 110% | 97.1% | 91.7% | 97.8% | 89.7% | > 10 µM | > 10 µM | – | > 10 µM | 0 | 96.8% | 101% | 96.1% | 103% | 95.6% | > 10 µM
OC(CCCN1CCCCC1)(c1ccccc1)c1ccccc1 [diphenidol] | 0 | 0 | – | 0 | 120% | 104% | 97.8% | 106% | 98.6% | 96.1% | 101% | 102% | 109% | 105% | – | – | – | – | – | 90.3% | 93.3% | 90.5% | 102% | 87.8% | > 10 µM | > 10 µM | – | > 10 µM | 0 | 104% | 98.9% | 103% | 99.5% | 100% | > 10 µM
CCOc1c(N2CCOCC2)cnn(C)c1=O [emorfazone] | – | 0 | 0 | 0 | – | – | – | – | – | 106% | 109% | 97.2% | 118% | 108% | 95.3% | 93.6% | 98.3% | 96.2% | 99.4% | 99.1% | 119% | 112% | 127% | 108% | – | > 10 µM | > 10 µM | > 10 µM | 0 | 96.4% | 93.1% | 93.8% | 96.1% | 104% | > 10 µM
COc1cc(OC)cc(N(CCNC(C)C)c2ccc3ncc(-c4cnn(C)c4)nc3c2)c1 [erdafitinib] | 1.3 | 3.4 | 3.6 | 1.7 | 109% | 90.2% | 92.3% | 89.6% | 81.4% | 101% | 111% | 104% | 99.4% | 39.2% | 94% | 99% | 92% | 98.9% | 35.9% | 90.1% | 99.3% | 94% | 99.3% | 65.2% | > 10 µM | 3.09 µM | 3.04 µM | – | 4.1 | 101% | 97.3% | 91.5% | 84% | 53.1% | –
CCOC(=O)c1cncn1[C@H](C)c1ccccc1 [etomidate] | 0 | 0 | 0 | – | 94.2% | 111% | 97.1% | 102% | 100% | 95% | 86.3% | 97.3% | 100% | 91.7% | 102% | 96.4% | 104% | 89.1% | 106% | – | – | – | – | – | > 10 µM | > 10 µM | > 10 µM | – | 0 | 91.8% | 99.2% | 94.4% | 97.2% | 102% | > 10 µM
COc1c(N2CCNC(C)C2)c(F)cc2c(=O)c(C(=O)O)cn(C3CC3)c12 (centres undefined) [gatifloxacin] | 0 | 0 | – | 0 | 101% | 114% | 103% | 103% | 89.4% | 99.1% | 101% | 95.9% | 98.7% | 100% | – | – | – | – | – | 95.7% | 99.9% | 97.6% | 100% | 96.8% | > 10 µM | > 10 µM | – | > 10 µM | 0 | 102% | 98.5% | 94.7% | 95.2% | 93% | > 10 µM
CN(C)c1ccc2c(c1)Sc1cc(N(C)C)ccc1N2 [leucomethylene-blue] | 4.4 | 8.7 | 4.9 | 5.2 | 101% | 102% | 102% | 109% | 9% | 93.1% | 93.2% | 93.6% | 76.4% | 7.7% | 95.8% | 97.1% | 93.9% | 85.2% | 45.9% | 95.2% | 99% | 102% | 94.1% | 23.1% | 3.65 µM | 1.53 µM | 1.55 µM | 2.54 µM | 2.2 | 99.5% | 94.1% | 97.2% | 99.6% | 56.9% | –
CN(C)C(=N)NC(=N)N [metformin] | 0 | 0 | 0 | 0 | 103% | 103% | 85.6% | 101% | 89.1% | 93.4% | 96.7% | 97.2% | 94.3% | 93% | 93.6% | 102% | 103% | 103% | 102% | 106% | 95.7% | 90.2% | 104% | 109% | > 10 µM | > 10 µM | > 10 µM | > 10 µM | – | – | – | – | – | – | –
C[C@@H]1C/C=C/C=C/C=C/C=C/[C@H](O[C@@H]2O[C@H](C)[C@@H](O)[C@H](N)[C@@H]2O)C[C@@H]2O[C@](O)(C[C@@H](O)C[C@H]3O[C@@H]3/C=C/C(=O)O1)C[C@H](O)[C@H]2C(=O)O [natamycin] | – | 0 | 0 | 0 | – | – | – | – | – | 89.7% | 91.6% | 92.5% | 93.3% | 94.8% | 95.7% | 96.6% | 93.3% | 88.7% | 105% | 90.9% | 103% | 95.3% | 97.1% | 107% | – | > 10 µM | > 10 µM | > 10 µM | 0 | 95.9% | 97.5% | 94.3% | 102% | 108% | > 10 µM
Nc1nc2ccc(OC(F)(F)F)cc2s1 [riluzole] | 0 | 0 | 0 | 0 | 96% | 100% | 109% | 97.5% | 103% | 97.9% | 106% | 96.6% | 94.7% | 105% | 93.4% | 98.1% | 98.7% | 99.5% | 104% | 97.4% | 90.4% | 91.7% | 103% | 96.9% | > 10 µM | > 10 µM | > 10 µM | > 10 µM | – | – | – | – | – | – | –
CC1(C)CN(C(=O)c2ccc(-c3cccc4nc(NC(=O)C5CC5)nn34)cc2)C1 [solcitinib] | 0 | 0 | – | 1.5 | 106% | 94.5% | 102% | 101% | 92.2% | 105% | 112% | 99.6% | 98.4% | 96.6% | – | – | – | – | – | 99.1% | 99.8% | 92.9% | 87.3% | 81.7% | > 10 µM | > 10 µM | – | > 10 µM | 0 | 101% | 97.3% | 101% | 97.2% | 96.8% | > 10 µM
O=C(O)COc1cccc(CN(Cc2ccc(-n3cccn3)cc2)S(=O)(=O)c2cccnc2)c1 [taprenepag] | 0 | 0 | 0 | 0 | 109% | 95.6% | 94.5% | 92.9% | 91.7% | 92.5% | 104% | 93.8% | 104% | 96.4% | 105% | 97.2% | 97.5% | 102% | 104% | 104% | 102% | 99.2% | 109% | 93.9% | > 10 µM | > 10 µM | > 10 µM | > 10 µM | – | – | – | – | – | – | –
CC(=O)Nc1ccc(NC(=S)NC(=O)c2ccc(C(C)(C)C)cc2)cc1 [tenovin-1] | 1.3 | 8.2 | 5.6 | 0 | 108% | 95.1% | 95.8% | 90.9% | 77.2% | 113% | 89.6% | 104% | 56.8% | 42.4% | 99.9% | 98.8% | 105% | 67.8% | 61.7% | 94.7% | 91.4% | 106% | 100% | 88.7% | > 10 µM | 0.65 µM | – | > 10 µM | 0 | 95.6% | 96.8% | 96.2% | 103% | 98.3% | > 10 µM
CN1c2ccccc2C(NCCCCCCC(=O)O)c2ccc(Cl)cc2S1(=O)=O (centres undefined) [tianeptine] | 0 | 0 | 0.3 | 0 | 100% | 103% | 92.4% | 102% | 102% | 100% | 108% | 96.2% | 108% | 98.6% | 104% | 102% | 101% | 94.1% | 88.1% | 103% | 92.7% | 107% | 94.8% | 92.8% | > 10 µM | > 10 µM | > 10 µM | > 10 µM | – | – | – | – | – | – | –
N=C(N)NCCC[C@H](NC(=O)[C@@H]1CCCN1C(=O)[C@@H]1CSSC[C@H](N)C(=O)N[C@@H](Cc2ccc(O)cc2)C(=O)N[C@@H](Cc2ccccc2)C(=O)N[C@@H](CCC(N)=O)C(=O)N[C@@H](CC(N)=O)C(=O)N1)C(=O)NCC(N)=O [vasopressin] | – | 0 | 0 | 0 | – | – | – | – | – | 101% | 98% | 86.3% | 92.3% | 99.5% | 101% | 99.1% | 98.1% | 94% | 99.1% | 94.8% | 93% | 88% | 87.5% | 99.2% | – | > 10 µM | > 10 µM | > 10 µM | 0 | 102% | 97.2% | 99.8% | 97.8% | 98% | > 10 µM
